{"source": "ChEMBL document CHEMBL1201862", "about": "“PubChem BioAssay data set” (2004)", "target": "Envelope glycoprotein gp160 (Human immunodeficiency virus 1, UniProt Q6QLK5)", "sequence (Q6QLK5 whole entry, the tested form may be a part)": "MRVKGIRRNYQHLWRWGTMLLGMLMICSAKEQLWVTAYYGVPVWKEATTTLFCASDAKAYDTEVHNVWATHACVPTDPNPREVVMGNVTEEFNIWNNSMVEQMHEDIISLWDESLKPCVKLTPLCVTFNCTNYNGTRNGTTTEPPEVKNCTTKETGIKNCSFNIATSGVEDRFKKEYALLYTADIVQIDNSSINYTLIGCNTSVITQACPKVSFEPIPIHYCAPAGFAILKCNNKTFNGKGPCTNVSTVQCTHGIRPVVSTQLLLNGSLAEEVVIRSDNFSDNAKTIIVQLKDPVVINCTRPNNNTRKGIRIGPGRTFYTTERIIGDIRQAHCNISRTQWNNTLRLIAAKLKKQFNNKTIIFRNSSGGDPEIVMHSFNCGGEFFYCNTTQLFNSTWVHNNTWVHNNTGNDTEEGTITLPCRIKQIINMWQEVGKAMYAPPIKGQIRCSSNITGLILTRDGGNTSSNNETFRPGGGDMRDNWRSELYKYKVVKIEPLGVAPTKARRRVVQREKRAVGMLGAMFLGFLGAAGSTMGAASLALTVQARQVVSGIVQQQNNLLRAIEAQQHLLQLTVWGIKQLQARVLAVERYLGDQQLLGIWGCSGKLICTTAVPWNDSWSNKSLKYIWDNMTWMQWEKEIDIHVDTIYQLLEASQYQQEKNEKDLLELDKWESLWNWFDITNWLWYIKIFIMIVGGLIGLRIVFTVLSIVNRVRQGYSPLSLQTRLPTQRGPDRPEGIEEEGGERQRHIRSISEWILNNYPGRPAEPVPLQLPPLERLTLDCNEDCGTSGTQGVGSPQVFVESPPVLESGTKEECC", "assay": "cell-free HIV fusion peptide-binding blockers – biochemical, uHTS, fluorescence dequenching, […] (AID 1986)", "note": "Calls of active or inactive are those of the source. Cut-off read from the data, not from the text of the source: actives have a measured IC50 and inactives only a lower limit."}
{"compound": "CCCCCOc1ccc(C2C(C(=O)c3ccc(C)o3)=C(O)C(=O)N2c2cc(C)on2)cc1", "note": "(configuration not stated)", "values": [{"measurement": "IC50", "result": "22.8 µM (active)"}]}
{"compound": "Cc1ccc(S(=O)(=O)Oc2ccc(/C=C3\\C(=N)N4N=C(S(C)(=O)=O)SC4=NC3=O)cc2)cc1", "values": [{"measurement": "IC50", "result": "16.2 µM (active)"}]}
